Results on 34 compounds are retold here after patent US12558356B2, “Immunophilin binding agents and uses thereof” (The Regents of the University of California, priority 2019, dated 2026).

Like-named read-outs stand apart in the source and are kept apart here.

In assay [1] the test system is p-S6 level in MCF7 cells. The assay is described as follows: Western blot of p-S6 level in MCF7 cells after combination treatment with Rapa/Rapalink and candidate compound (blockade score). In kind it is cell-based. As to conditions: 24 h, p-S6 level as fraction of DMSO control; for Rapamycin Blockade: 10 nM Rapa + 10 μM candidate compound; for RapaLink-1 Blockade: 10 nM Rapalink + 10 μM candidate compound. For orientation: A western blot detects proteins with antibodies after separation by electrophoresis.

The target of assay [2] is FKBP12 (Homo sapiens (Human), UniProt P62942). In words: FKBP12 binding assay (fluorescence polarization). In general terms: Polarisation of emitted light reports the rotation of a fluorescent probe.
FKBP12, sequence (P62942 whole entry): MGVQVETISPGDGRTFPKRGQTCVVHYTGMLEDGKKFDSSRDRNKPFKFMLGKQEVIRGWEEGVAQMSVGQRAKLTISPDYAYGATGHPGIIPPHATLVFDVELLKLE

As a reminder, the Kd is the equilibrium constant for the complex coming apart. Consider `CCC(C)(C)C(=O)C(=O)N1CCCC[C@H]1C(=O)O[C@H](CCc1ccc(OC)c(OC)c1)c1cccc(NC(=O)CN=[N+]=[N-])c1` [ZZY02-096], for which the “Rapamycin Blockade” value in assay [1] is 2 (40%-70%). In addition, the Kd in assay [2] (read-out: Kd FKBP12) was determined as 6 nM.
As to `CCC(C)(C)C(=O)C(=O)N1CCCC[C@H]1C(=O)O[C@H](CCc1ccc(OC)c(OC)c1)c1cccc(NC(=O)[C@H](C)N)c1` [ZZY01-059], the “Rapamycin Blockade” value in assay [1] is on record as 3 (>70%).
Consider `CO[C@H]1C/C(C)=C/[C@@H](CCCc2cc[n+]([O-])cc2)C(=O)C[C@H](O)[C@@H](C)[C@@H](/C(C)=C/[C@@H]2CC[C@@H](O)[C@H](OC)C2)OC(=O)[C@@H]2CCCCN2C(=O)C(=O)[C@]2(O)O[C@H]([C@@H](OC)C1)[C@@H](OC)C[C@H]2C` [ZZY05-086], for which the “RapaLink-1 Blockade” value in assay [1] is listed as 3 (>70%). The same compound showed a Kd in assay [2] of 1.6 nM.
Regarding `CCC(C)(C)C(=O)C(=O)N1CCCC[C@H]1C(=O)O[C@H](CCc1ccc(OC)c(OC)c1)c1cccc(NC(=O)C[N+](C)(C)C)c1` [ZZY01-025], the “Rapamycin Blockade” value in assay [1] was 1 (20-40%). Besides, in assay [2] (read-out: Kd FKBP12), the Kd was found to be 95 nM.
For `CCC(C)(C)C(=O)C(=O)N1CCCC[C@H]1C(=O)O[C@H](CCc1ccc(OC)c(OC)c1)c1cccc(NC(=O)CS)c1` [ZZY02-055] the same measures were 0 (<20%) and 63.8 nM.
For `CO[C@H]1C/C(C)=C/[C@@H](CCCSCCN)C(=O)C[C@H](O)[C@@H](C)[C@@H](/C(C)=C/[C@@H]2CC[C@@H](O)[C@H](OC)C2)OC(=O)[C@@H]2CCCCN2C(=O)C(=O)[C@]2(O)O[C@H]([C@@H](OC)C1)[C@@H](OC)C[C@H]2C` [ZZY05-011], in assay [1], the “Rapamycin Blockade” value was 3 (>70%) and the “RapaLink-1 Blockade” value is given as 3 (>70%). In assay [2], this compound came in with a Kd of 0.69 nM.
Consider tacrolimus [FK506, reference compound], for which, in assay [1], the “Rapamycin Blockade” value is 3 (>70%) and the “RapaLink-1 Blockade” value is reported as 3 (>70%).
As for `CCC(C)(C)C(=O)C(=O)N1CCCC[C@H]1C(=O)O[C@H](CCc1ccc(OC)c(OC)c1)c1cccc(NC(=O)CCC(=O)O)c1` [ZZY01-083], the “Rapamycin Blockade” value in assay [1] was 1 (20-40%).
In the case of `CCC(C)(C)C(=O)C(=O)N1CCCC[C@H]1C(=O)O[C@H](CCc1ccc(OC)c(OC)c1)c1cccc(NC(=O)CN2CCOCC2)c1` [ZZY01-043], in assay [1], the “Rapamycin Blockade” value is on record as 3 (>70%). Besides, the Kd in assay [2] (read-out: Kd FKBP12) is 15 nM.
As to `CCC(C)(C)C(=O)C(=O)N1CCCC[C@H]1C(=O)O[C@H](CCc1ccc(OC)c(OC)c1)c1cccc(NCC(=O)O)c1` [ZZY01-060A], the “Rapamycin Blockade” value in assay [1] is reported as 0 (<20%).
On the same count and under the same terms, with `CCC(C)(C)C(=O)C(=O)N1CCCC[C@H]1C(=O)O[C@H](CCc1ccc(OC)c(OC)c1)c1cccc(NC(=O)CCl)c1` [ZZY02-033] the figure was 0 (<20%).
Turning to `CO[C@H]1C/C(C)=C/[C@@H](C/C=C/C(=O)O)C(=O)C[C@H](O)[C@@H](C)[C@@H](/C(C)=C/[C@@H]2CC[C@@H](O)[C@H](OC)C2)OC(=O)[C@@H]2CCCCN2C(=O)C(=O)[C@]2(O)O[C@H]([C@@H](OC)C1)[C@@H](OC)C[C@H]2C` [ZZY05-012], in assay [1], the “Rapamycin Blockade” value was 0 (<20%) and the “RapaLink-1 Blockade” value was 0 (<20%). For the same compound, binding in assay [2] was characterised by a dissociation constant (Kd) of 0.39 nM.
As to `CO[C@H]1C/C(C)=C/[C@@H](CCCSC[C@H](N)C(=O)O)C(=O)C[C@H](O)[C@@H](C)[C@@H](/C(C)=C/[C@@H]2CC[C@@H](O)[C@H](OC)C2)OC(=O)[C@@H]2CCCCN2C(=O)C(=O)[C@]2(O)O[C@H]([C@@H](OC)C1)[C@@H](OC)C[C@H]2C` [ZZY05-037], the “RapaLink-1 Blockade” value in assay [1] is 1 (20-40%). Besides, the Kd in assay [2] turned out to be 8.7 nM.
As to `CO[C@H]1C/C(C)=C/[C@@H](C/C=C/c2cc[n+]([O-])cc2)C(=O)C[C@H](O)[C@@H](C)[C@@H](/C(C)=C/[C@@H]2CC[C@@H](O)[C@H](OC)C2)OC(=O)[C@@H]2CCCCN2C(=O)C(=O)[C@]2(O)O[C@H]([C@@H](OC)C1)[C@@H](OC)C[C@H]2C` [ZZY05-061], the “RapaLink-1 Blockade” value in assay [1] is given as 0 (<20%). Further, the Kd in assay [2] (read-out: Kd FKBP12) was 0.21 nM.
`CO[C@H]1C/C(C)=C/[C@@H](CCCSCCN(C)C)C(=O)C[C@H](O)[C@@H](C)[C@@H](/C(C)=C/[C@@H]2CC[C@@H](O)[C@H](OC)C2)OC(=O)[C@@H]2CCCCN2C(=O)C(=O)[C@]2(O)O[C@H]([C@@H](OC)C1)[C@@H](OC)C[C@H]2C` [ZZY05-013]: in assay [1], the “Rapamycin Blockade” value is listed as 3 (>70%) and the “RapaLink-1 Blockade” value is given as 3 (>70%). In addition, in assay [2], the affinity, expressed as Kd, was 1.36 nM.
Take `CCC(C)(C)C(=O)C(=O)N1CCCC[C@H]1C(=O)O[C@H](CCc1ccc(OC)c(OC)c1)c1cccc(NC(=O)CN(C)C)c1` [ZZY01-044]: in assay [1], the “Rapamycin Blockade” value was 3 (>70%). Also, the Kd in assay [2] (read-out: Kd FKBP12) is 12.7 nM.
For `CCC(C)(C)C(=O)C(=O)N1CCCC[C@H]1C(=O)O[C@H](CCc1ccc(OC)c(OC)c1)c1cccc(NC(=O)CNN)c1` [ZZY01-070] the same measures were 1 (20-40%) and 21 nM.
In the same order, the values of `CCC(C)(C)C(=O)C(=O)N1CCCC[C@H]1C(=O)O[C@H](CCc1ccc(OC)c(OC)c1)c1cccc(NC(=O)CNC(=N)N)c1` [ZZY01-065] are 2 (40%-70%) and 37.8 nM.
In the same order, the values of `CCC(C)(C)C(=O)C(=O)N1CCCC[C@H]1C(=O)O[C@H](CCc1ccc(OC)c(OC)c1)c1cccc(NCCN)c1` [ZZY02-032] are 0 (<20%) and 36.4 nM.
With `CO[C@H]1C/C(C)=C/[C@@H](CCCC(=O)O)C(=O)C[C@H](O)[C@@H](C)[C@@H](/C(C)=C/[C@@H]2CC[C@@H](O)[C@H](OC)C2)OC(=O)[C@@H]2CCCCN2C(=O)C(=O)[C@]2(O)O[C@H]([C@@H](OC)C1)[C@@H](OC)C[C@H]2C` [ZZY05-020], in assay [1], the “Rapamycin Blockade” value was 2 (40%-70%) and the “RapaLink-1 Blockade” value was 0 (<20%). Moreover, the Kd in assay [2] (read-out: Kd FKBP12) worked out at 1.49 nM.
In the case of `CCC(C)(C)C(=O)C(=O)N1CCCC[C@H]1C(=O)O[C@H](CCc1ccc(OC)c(OC)c1)c1cccc(NC(=O)CCOCCN)c1` [ZZY03-084], the “Rapamycin Blockade” value in assay [1] was 2 (40%-70%). In addition, in assay [2] (read-out: Kd FKBP12), the Kd was 18.6 nM.
In the case of `CO[C@H]1C/C(C)=C/[C@@H](CCCC(=O)Nc2ccccn2)C(=O)C[C@H](O)[C@@H](C)[C@@H](/C(C)=C/[C@@H]2CC[C@@H](O)[C@H](OC)C2)OC(=O)[C@@H]2CCCCN2C(=O)C(=O)[C@]2(O)O[C@H]([C@@H](OC)C1)[C@@H](OC)C[C@H]2C` [ZZY05-064], the “RapaLink-1 Blockade” value in assay [1] is listed as 3 (>70%). Further, the Kd in assay [2] (read-out: Kd FKBP12) came to 0.2 nM.
Consider `CCC(C)(C)C(=O)C(=O)N1CCCC[C@H]1C(=O)O[C@H](CCc1ccc(OC)c(OC)c1)c1cccc(NC(=O)CN2CCN(C)CC2)c1` [ZZY01-072], for which the “Rapamycin Blockade” value in assay [1] is 3 (>70%). Further, the Kd in assay [2] (read-out: Kd FKBP12) amounted to 12.5 nM.
In the same order, the values of `CCC(C)(C)C(=O)C(=O)N1CCCC[C@H]1C(=O)O[C@H](CCc1ccc(OC)c(OC)c1)c1cccc(OCC(=O)O)c1` [ZZY01-041] are 0 (<20%) and 38 nM.
For `CCC(C)(C)C(=O)C(=O)N1CCCC[C@H]1C(=O)O[C@H](CCc1ccc(OC)c(OC)c1)c1cccc(NC(=O)CN)c1` [ZZY01-040] the same measures were 3 (>70%) and 21.3 nM.
For `CCC(C)(C)C(=O)C(=O)N1CCCC[C@H]1C(=O)O[C@H](CCc1ccc(OC)c(OC)c1)c1cccc(N(CC(=O)O)CC(=O)O)c1` [ZZY01-060B] the same measures were 1 (20-40%) and 75 nM.
Turning to `CCC(C)(C)C(=O)C(=O)N1CCCC[C@H]1C(=O)O[C@H](CCc1ccc(OC)c(OC)c1)c1cccc(NC(=O)CNc2ccccn2)c1` [ZZY03-091], the “Rapamycin Blockade” value in assay [1] is on record as 2 (40%-70%). Moreover, the Kd in assay [2] (read-out: Kd FKBP12) was 37.3 nM.
In the same order, the values of `CCC(C)(C)C(=O)C(=O)N1CCCC[C@H]1C(=O)O[C@H](CCc1ccc(OC)c(OC)c1)c1cccc(OCCN)c1` [ZZY01-038] are 1 (20-40%) and 9.4 nM.
For `CCC(C)(C)C(=O)C(=O)N1CCCC[C@H]1C(=O)O[C@H](CCc1ccc(OC)c(OC)c1)c1cccc(N)c1` [SLF, reference compound], in assay [1], the “Rapamycin Blockade” value is reported as 3 (>70%) and the “RapaLink-1 Blockade” value was 0 (<20%).
On to `C=CC(=O)Nc1cccc([C@@H](CCc2ccc(OC)c(OC)c2)OC(=O)[C@@H]2CCCCN2C(=O)C(=O)C(C)(C)CC)c1` [ZZY02-014], for which the “Rapamycin Blockade” value in assay [1] is reported as 3 (>70%). The Kd in assay [2] (read-out: Kd FKBP12) is 64 nM.
In the same order, the values of `CCC(C)(C)C(=O)C(=O)N1CCCC[C@H]1C(=O)O[C@H](CCc1ccc(OC)c(OC)c1)c1cccc(NC(=O)CCOCCOCCN)c1` [ZZY03-077] are 3 (>70%) and 43.7 nM.
Turning to `CO[C@H]1C/C(C)=C/[C@@H](C/C=C/c2cccc[n+]2[O-])C(=O)C[C@H](O)[C@@H](C)[C@@H](/C(C)=C/[C@@H]2CC[C@@H](O)[C@H](OC)C2)OC(=O)[C@@H]2CCCCN2C(=O)C(=O)[C@]2(O)O[C@H]([C@@H](OC)C1)[C@@H](OC)C[C@H]2C` [ZZY05-060], the “RapaLink-1 Blockade” value in assay [1] is 1 (20-40%). Also, the Kd in assay [2] (read-out: Kd FKBP12) amounted to 0.62 nM.
As for `CO[C@H]1C/C(C)=C/[C@@H](C/C=C/c2ccncc2)C(=O)C[C@H](O)[C@@H](C)[C@@H](/C(C)=C/[C@@H]2CC[C@@H](O)[C@H](OC)C2)OC(=O)[C@@H]2CCCCN2C(=O)C(=O)[C@]2(O)O[C@H]([C@@H](OC)C1)[C@@H](OC)C[C@H]2C` [ZZY05-050], the “RapaLink-1 Blockade” value in assay [1] was 3 (>70%). In assay [2], the Kd worked out at 3.6 nM.
Turning to `CCC(C)(C)C(=O)C(=O)N1CCCC[C@H]1C(=O)O[C@H](CCc1ccc(OC)c(OC)c1)c1cccc(NC(=O)Cc2ccccn2)c1` [ZZY03-083], in assay [1], the “Rapamycin Blockade” value was 3 (>70%) and the “RapaLink-1 Blockade” value is on record as 0 (<20%). Moreover, the Kd in assay [2] (read-out: Kd FKBP12) turned out to be 31.1 nM.
